Legend:
ROS/ROS1 = molecular target: T1, ROS/ROS1 (Homo sapiens, UniProt P08922); assay: In vitro kinase screening (Kinase HotSpot); assay type: biochemical; conditions: single dose of 10 µM
T1 construct: purchased Reaction Biology Corp
Excerpt: (§1) To investigate the biological target of compound, Reaction Biology Corp. Kinase HotSpotSM service was used adopting standard assay protocol.

GSK3b = molecular target: T2, GSK3b (Homo sapiens, UniProt P49841); assay: In vitro kinase screening (Kinase HotSpot); assay type: biochemical; conditions: single dose of 10 µM
T2 construct: purchased Reaction Biology Corp
Excerpt: as §1

IKKb/IKBKB = molecular target: T3, IKKb/IKBKB (Homo sapiens, UniProt O14920); assay: In vitro kinase screening (Kinase HotSpot); assay type: biochemical; conditions: single dose of 10 µM
T3 construct: purchased Reaction Biology Corp
T3 sequence (O14920 1-756): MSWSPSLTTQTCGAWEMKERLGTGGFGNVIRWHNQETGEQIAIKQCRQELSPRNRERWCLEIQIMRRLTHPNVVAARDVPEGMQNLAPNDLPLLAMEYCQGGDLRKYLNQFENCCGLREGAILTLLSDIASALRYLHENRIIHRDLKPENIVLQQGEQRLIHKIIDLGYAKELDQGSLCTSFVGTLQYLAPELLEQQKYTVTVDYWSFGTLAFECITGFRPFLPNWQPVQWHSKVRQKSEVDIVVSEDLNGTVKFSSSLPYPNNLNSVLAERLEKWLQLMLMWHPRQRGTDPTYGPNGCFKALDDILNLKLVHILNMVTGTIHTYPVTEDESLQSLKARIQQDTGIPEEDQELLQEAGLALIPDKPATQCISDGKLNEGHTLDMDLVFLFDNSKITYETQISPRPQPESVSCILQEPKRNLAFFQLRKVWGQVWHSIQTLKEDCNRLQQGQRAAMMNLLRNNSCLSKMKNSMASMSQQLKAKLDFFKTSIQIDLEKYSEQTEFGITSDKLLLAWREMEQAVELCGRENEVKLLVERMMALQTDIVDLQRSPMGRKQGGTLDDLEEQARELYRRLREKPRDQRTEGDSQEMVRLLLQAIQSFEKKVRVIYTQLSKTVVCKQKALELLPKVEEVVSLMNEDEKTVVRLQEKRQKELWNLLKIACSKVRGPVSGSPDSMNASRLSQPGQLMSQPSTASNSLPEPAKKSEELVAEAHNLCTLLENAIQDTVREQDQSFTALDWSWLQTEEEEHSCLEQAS
Excerpt: as §1

ABL1 (T315I) = molecular target: T4, ABL1 (T315I) (Homo sapiens, UniProt P00519, T315I); assay: In vitro kinase screening (Kinase HotSpot); assay type: biochemical; conditions: single dose of 10 µM
T4 construct: purchased Reaction Biology Corp
Excerpt: as §1

JNK3 = molecular target: T5, JNK3 (Homo sapiens, UniProt P53779); assay: In vitro kinase screening (Kinase HotSpot); assay type: biochemical; conditions: single dose of 10 µM
T5 construct: purchased Reaction Biology Corp
Excerpt: as §1

BRAF (V600E) = molecular target: T6, BRAF (V600E) (Homo sapiens, UniProt P15056, V600E); assay: In vitro kinase screening (Kinase HotSpot); assay type: biochemical; conditions: single dose of 10 µM, BRAF (V599E) in Table 6, BRAF (V600E) in text
T6 construct: purchased Reaction Biology Corp
Excerpt: as §1

JNK1 = molecular target: T7, JNK1 (Homo sapiens, UniProt P45983); assay: In vitro kinase screening (Kinase HotSpot); assay type: biochemical; conditions: single dose of 10 µM
T7 construct: purchased Reaction Biology Corp
Excerpt: as §1

BRAF = molecular target: T8, BRAF (Homo sapiens, UniProt P15056); assay: In vitro kinase screening (Kinase HotSpot); assay type: biochemical; conditions: single dose of 10 µM
T8 construct: purchased Reaction Biology Corp
Excerpt: as §1

JNK2 = molecular target: T9, JNK2 (Homo sapiens, UniProt P45984); assay: In vitro kinase screening (Kinase HotSpot); assay type: biochemical; conditions: single dose of 10 µM
T9 construct: purchased Reaction Biology Corp
Excerpt: as §1

CDK2/cyclin E = molecular target: T10, CDK2/cyclin E (Homo sapiens, UniProt P24941); assay: In vitro kinase screening (Kinase HotSpot); assay type: biochemical; conditions: single dose of 10 µM
T10 construct: purchased Reaction Biology Corp
Excerpt: as §1

P38a/MAPK14 = molecular target: T11, P38a/MAPK14 (Homo sapiens, UniProt Q16539); assay: In vitro kinase screening (Kinase HotSpot); assay type: biochemical; conditions: single dose of 10 µM, P38a/MAPK14
T11 construct: purchased Reaction Biology Corp
Excerpt: as §1

EGFR = molecular target: T12, EGFR (Homo sapiens, UniProt P00533); assay: In vitro kinase screening (Kinase HotSpot); assay type: biochemical; conditions: single dose of 10 µM
T12 construct: purchased Reaction Biology Corp
Excerpt: as §1

[1] = system: HT29 colon cancer cell line; assay: NCI-60 single-dose screening; assay type: cell-based; conditions: 10 µM
Protocol: (§2) Screening against the cancer cell lines was carried out at the National Cancer Institute (NCI, Bethesda, Maryland, USA) applying the standard protocol of the NCI[22].
(§3) The final target compounds were submitted to the National Cancer Institute (NCI), Maryland, USA[23]. Thirty-one compounds were selected to be tested over 60 cell lines at single dose 10 µM.

SR leukaemia cell line = assay: NCI-60 single-dose screening; assay type: cell-based; conditions: 10 µM
Protocol: as §2, §3

NCI-60 cell line panel = assay: NCI-60 single-dose (10 µM) antiproliferative screening, mean over panel; assay type: cell-based; conditions: single-dose 10 µM
Protocol: as §2, §3

[2] = system: K-562 leukaemia cell line; assay: NCI five-dose testing; assay type: cell-based; conditions: Homo sapiens
Protocol: as §2

[3] = system: MDA-MB-468 breast cancer cell line; assay: NCI five-dose testing; assay type: cell-based; conditions: Homo sapiens
Protocol: as §2

[4] = system: HT-29 colon cancer cell line; assay: NCI five-dose testing; assay type: cell-based; conditions: Homo sapiens
Protocol: as §2

[5] = system: A498 renal cancer cell line; assay: NCI five-dose testing; assay type: cell-based; conditions: Homo sapiens
Protocol: as §2

[6] = system: PC-3 prostate cancer cell line; assay: NCI five-dose testing; assay type: cell-based; conditions: Homo sapiens
Protocol: as §2

[7] = system: U251 CNS cancer cell line; assay: NCI five-dose testing; assay type: cell-based; conditions: Homo sapiens
Protocol: as §2

[8] = system: OVCAR-4 ovarian cancer cell line; assay: NCI five-dose testing; assay type: cell-based; conditions: Homo sapiens
Protocol: as §2

[9] = system: HOP-92 non-small cell lung cancer cell line; assay: NCI five-dose testing; assay type: cell-based; conditions: Homo sapiens
Protocol: as §2

[10] = system: SK-MEL-5 melanoma cell line; assay: NCI five-dose testing; assay type: cell-based; conditions: Homo sapiens
Protocol: as §2

renal cancer cell lines = assay: NCI five-dose testing, subpanel mean; assay type: cell-based; conditions: subpanel VII: renal cancer
Protocol: as §2

[11] = system: non-small cell lung cancer cell lines; assay: NCI five-dose testing, subpanel mean; assay type: cell-based; conditions: subpanel II: non-small cell lung cancer
Protocol: as §2

[12] = system: ovarian cancer cell lines; assay: NCI five-dose testing, subpanel mean; assay type: cell-based; conditions: subpanel VI: ovarian cancer
Protocol: as §2

melanoma cell lines = assay: NCI five-dose testing, subpanel mean; assay type: cell-based; conditions: subpanel V: melanoma
Protocol: as §2

colon cancer cell lines = assay: NCI five-dose testing, subpanel mean; assay type: cell-based; conditions: subpanel III: colon cancer
Protocol: as §2

[13] = system: prostate cancer cell lines; assay: NCI five-dose testing, subpanel mean; assay type: cell-based; conditions: subpanel VIII: prostate cancer
Protocol: as §2

Leukaemia cell lines = assay: NCI five-dose testing, subpanel mean; assay type: cell-based; conditions: subpanel I: Leukaemia
Protocol: as §2

CNS cancer cell lines = assay: NCI five-dose testing, subpanel mean; assay type: cell-based; conditions: subpanel IV: CNS cancer
Protocol: as §2

breast cancer cell lines = assay: NCI five-dose testing, subpanel mean; assay type: cell-based; conditions: subpanel IX: breast cancer
Protocol: as §2

[14] = system: Colo 205 colon cancer cell line; assay: NCI-60 single-dose screening; assay type: cell-based; conditions: Homo sapiens, read-out: per cent inhibition
Protocol: as §2, §3

[15] = system: SF-295 CNS cancer cell line; assay: NCI-60 single-dose screening; assay type: cell-based; conditions: Homo sapiens, read-out: per cent inhibition
Protocol: as §2, §3

[16] = system: HCC-116 colon cancer cell line; assay: NCI-60 single-dose screening; assay type: cell-based; conditions: read-out: per cent inhibition
Protocol: as §2, §3

T6 sequence (P15056 whole entry V600E): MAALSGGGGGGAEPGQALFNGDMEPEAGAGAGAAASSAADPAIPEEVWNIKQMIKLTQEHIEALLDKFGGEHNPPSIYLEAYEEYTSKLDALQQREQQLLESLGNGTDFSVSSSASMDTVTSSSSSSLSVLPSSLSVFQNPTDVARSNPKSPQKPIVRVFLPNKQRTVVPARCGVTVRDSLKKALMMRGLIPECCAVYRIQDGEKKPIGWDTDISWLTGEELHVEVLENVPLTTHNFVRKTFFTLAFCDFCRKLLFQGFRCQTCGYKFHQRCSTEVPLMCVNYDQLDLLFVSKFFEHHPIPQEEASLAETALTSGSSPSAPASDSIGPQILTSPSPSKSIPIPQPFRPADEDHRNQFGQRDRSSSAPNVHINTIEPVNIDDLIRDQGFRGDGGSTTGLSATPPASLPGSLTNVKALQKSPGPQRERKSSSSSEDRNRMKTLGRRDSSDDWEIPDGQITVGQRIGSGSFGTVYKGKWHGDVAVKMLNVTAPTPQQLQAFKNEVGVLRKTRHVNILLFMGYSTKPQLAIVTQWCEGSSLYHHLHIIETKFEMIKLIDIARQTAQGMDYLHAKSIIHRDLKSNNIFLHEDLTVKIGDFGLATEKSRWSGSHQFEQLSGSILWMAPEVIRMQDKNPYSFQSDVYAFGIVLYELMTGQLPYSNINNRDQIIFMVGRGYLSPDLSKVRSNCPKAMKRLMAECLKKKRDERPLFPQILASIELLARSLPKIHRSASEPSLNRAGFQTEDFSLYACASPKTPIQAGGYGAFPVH
T8 sequence (P15056 whole entry): as the sequence (P15056 whole entry V600E) above, with E600V counted along it
T2 sequence (P49841 whole entry): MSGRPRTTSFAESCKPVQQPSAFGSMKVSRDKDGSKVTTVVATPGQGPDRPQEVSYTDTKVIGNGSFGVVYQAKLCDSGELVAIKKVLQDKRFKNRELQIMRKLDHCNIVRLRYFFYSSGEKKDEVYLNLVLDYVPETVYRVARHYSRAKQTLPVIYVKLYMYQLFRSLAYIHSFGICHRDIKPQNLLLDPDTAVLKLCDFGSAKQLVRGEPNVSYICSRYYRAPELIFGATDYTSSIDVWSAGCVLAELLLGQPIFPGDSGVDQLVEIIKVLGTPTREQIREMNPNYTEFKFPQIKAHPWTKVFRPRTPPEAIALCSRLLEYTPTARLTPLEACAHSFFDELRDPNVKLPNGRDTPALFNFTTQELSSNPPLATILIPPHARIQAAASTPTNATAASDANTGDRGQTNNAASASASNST
T9 sequence (P45984 whole entry): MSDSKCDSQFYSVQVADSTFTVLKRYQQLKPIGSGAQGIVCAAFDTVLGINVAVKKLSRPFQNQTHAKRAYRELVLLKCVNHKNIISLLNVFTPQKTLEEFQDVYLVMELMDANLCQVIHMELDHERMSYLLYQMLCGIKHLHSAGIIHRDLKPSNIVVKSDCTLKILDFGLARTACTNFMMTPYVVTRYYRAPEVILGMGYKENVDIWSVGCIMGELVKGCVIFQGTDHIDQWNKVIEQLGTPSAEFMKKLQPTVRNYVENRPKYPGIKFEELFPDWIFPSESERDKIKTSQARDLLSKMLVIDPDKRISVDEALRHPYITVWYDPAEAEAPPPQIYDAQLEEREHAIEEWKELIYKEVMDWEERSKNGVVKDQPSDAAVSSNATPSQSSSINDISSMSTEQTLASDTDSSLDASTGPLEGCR
T11 sequence (Q16539 whole entry): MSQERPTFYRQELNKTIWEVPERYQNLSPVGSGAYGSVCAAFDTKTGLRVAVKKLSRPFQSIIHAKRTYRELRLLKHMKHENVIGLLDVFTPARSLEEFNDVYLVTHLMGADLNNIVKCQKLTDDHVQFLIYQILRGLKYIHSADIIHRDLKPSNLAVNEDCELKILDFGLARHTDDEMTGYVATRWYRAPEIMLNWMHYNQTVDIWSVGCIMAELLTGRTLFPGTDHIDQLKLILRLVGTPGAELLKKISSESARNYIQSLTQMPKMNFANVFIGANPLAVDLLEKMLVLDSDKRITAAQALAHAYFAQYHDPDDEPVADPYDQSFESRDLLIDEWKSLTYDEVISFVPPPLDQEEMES
T7 sequence (P45983 whole entry): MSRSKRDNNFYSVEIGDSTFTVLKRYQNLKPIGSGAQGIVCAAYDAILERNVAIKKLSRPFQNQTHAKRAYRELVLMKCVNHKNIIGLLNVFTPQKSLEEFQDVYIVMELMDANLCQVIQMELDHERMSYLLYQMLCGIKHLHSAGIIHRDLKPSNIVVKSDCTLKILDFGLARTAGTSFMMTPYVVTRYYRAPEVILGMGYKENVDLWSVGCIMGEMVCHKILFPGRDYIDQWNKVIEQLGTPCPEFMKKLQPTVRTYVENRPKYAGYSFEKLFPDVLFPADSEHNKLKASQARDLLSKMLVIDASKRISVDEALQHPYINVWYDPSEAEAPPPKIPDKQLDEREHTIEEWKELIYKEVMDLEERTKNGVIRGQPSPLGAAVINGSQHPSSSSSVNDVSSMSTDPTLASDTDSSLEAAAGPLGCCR
T12 sequence (P00533 25-1210): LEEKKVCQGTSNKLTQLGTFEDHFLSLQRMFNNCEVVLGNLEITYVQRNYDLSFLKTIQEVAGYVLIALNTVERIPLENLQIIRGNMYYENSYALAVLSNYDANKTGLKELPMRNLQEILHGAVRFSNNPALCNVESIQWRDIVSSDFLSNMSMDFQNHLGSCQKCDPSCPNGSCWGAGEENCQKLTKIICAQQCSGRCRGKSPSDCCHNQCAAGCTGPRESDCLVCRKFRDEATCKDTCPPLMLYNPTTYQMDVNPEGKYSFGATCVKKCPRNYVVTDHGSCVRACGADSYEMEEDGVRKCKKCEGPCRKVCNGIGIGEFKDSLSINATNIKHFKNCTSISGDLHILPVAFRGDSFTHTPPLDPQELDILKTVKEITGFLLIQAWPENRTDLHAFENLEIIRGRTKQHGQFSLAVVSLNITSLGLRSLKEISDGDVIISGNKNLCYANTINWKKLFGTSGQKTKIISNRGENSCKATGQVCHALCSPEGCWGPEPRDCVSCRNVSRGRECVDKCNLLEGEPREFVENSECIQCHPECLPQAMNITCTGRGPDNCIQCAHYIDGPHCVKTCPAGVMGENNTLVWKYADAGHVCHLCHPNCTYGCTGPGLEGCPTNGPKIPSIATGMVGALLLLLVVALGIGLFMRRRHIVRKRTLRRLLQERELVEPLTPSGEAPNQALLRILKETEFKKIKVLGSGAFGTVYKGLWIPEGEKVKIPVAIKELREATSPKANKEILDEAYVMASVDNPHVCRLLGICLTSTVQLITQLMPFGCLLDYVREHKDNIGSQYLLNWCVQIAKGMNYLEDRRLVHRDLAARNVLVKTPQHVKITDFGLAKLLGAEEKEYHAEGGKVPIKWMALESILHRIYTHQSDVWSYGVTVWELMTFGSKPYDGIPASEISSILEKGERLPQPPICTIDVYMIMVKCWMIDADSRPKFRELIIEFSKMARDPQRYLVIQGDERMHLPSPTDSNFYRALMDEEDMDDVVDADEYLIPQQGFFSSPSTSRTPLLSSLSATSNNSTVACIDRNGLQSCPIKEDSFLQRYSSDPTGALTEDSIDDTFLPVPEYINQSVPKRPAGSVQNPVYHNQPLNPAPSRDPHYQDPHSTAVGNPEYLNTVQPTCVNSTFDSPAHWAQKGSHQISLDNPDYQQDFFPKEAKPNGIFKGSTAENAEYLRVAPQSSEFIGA
T5 sequence (P53779 whole entry): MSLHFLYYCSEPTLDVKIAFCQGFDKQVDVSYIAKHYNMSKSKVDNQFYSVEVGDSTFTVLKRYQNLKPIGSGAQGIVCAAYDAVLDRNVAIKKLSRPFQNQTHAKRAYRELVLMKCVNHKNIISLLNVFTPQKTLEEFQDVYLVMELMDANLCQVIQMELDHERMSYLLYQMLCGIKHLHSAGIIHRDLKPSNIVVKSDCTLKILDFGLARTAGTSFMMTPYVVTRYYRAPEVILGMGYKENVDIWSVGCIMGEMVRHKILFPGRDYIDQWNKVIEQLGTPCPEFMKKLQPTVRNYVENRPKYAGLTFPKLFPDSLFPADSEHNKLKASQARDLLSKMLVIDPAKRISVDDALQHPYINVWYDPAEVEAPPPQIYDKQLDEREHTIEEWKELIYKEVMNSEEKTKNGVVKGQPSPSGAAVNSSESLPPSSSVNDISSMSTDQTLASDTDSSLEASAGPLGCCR

Compound: COc1cccc(-c2nn(-c3ccccc3)cc2-c2ccnc(NCCCNS(=O)(=O)c3ccc(Cl)cc3)c2)c1 [Compound 2c, 4-Chloro-N-(3-((4-(3-(3-methoxyphenyl)-1-phenyl-1H-pyrazol-4-yl)pyridin-2-yl)amino)propyl) benzenesulfonamide]
- Inhibition % (ROS/ROS1): 3.40 ± 0.39%
- Inhibition % (GSK3b): 49.31 ± 0.30%
- Inhibition % (IKKb/IKBKB): 7.79 ± 0.15%
- Inhibition % (ABL1 (T315I)): 4.53 ± 0.45%
- Inhibition % (JNK3): 24.23 ± 0.03%
- Inhibition % (BRAF (V600E)): 44.20 ± 0.40%
- Inhibition % (JNK1): 69.19 ± 0.02%
- Inhibition % (BRAF): 20.87 ± 0.30%
- Inhibition % (JNK2): 59.68 ± 0.01%
- Inhibition % (CDK2/cyclin E): 9.80 ± 1.01%
- Inhibition % (P38a/MAPK14): 65.73 ± 0.66%
- Inhibition % (EGFR): 9.20 ± 4.45%
- per cent inhibition [1]: 88.66%
- per cent inhibition (SR leukaemia cell line): 92.74%

Compound: O=S(=O)(NCCCNc1cc(-c2cn(-c3ccccc3)nc2-c2cccc(O)c2)ccn1)c1ccc(Br)cc1 [Compound 2k, 4-Bromo-N-(3-((4-(3-(3-hydroxyphenyl)-1-phenyl-1H-pyrazol-4-yl)pyridin-2-yl)amino)propyl)benzenesulfonamide]
- inhibition at 10 µM (NCI-60 cell line panel; 60-cancer cell line screening): 90.6%
- number of cell lines with more than 100% inhibition (NCI-60 cell line panel; NCI-60 panel): 13
- CC50 ([2]; K562, read-out: LD50 (lethal dose 50)): > 100 µM
- IC50 ([2]; K562, K-562): 440 nM
- IC (TGI) ([2]; K562, K-562, read-out: TGI (total growth inhibition concentration)): 2.8 µM
- IC50 ([3]; MDA-MB-468): 1540 nM
- CC50 ([3]; MDA-MB-468, read-out: LD50 (lethal dose 50)): > 100 µM
- IC (TGI) ([3]; MDA-MB-468, read-out: TGI (total growth inhibition concentration)): 5.6 µM
- CC50 ([4]; HT-29, read-out: LD50 (lethal dose 50)): 7.1 µM
- IC50 ([4]; HT-29, read-out: IC50): 630 nM
- IC (TGI) ([4]; HT-29, read-out: TGI (total growth inhibition concentration)): 2.3 µM
- IC50 ([5]; A498): 380 nM
- LC50 (lethal concentration 50%) ([5]; A498, read-out: LD50 (lethal dose 50)): 11.9 µM
- IC (TGI) ([5]; A498, read-out: TGI (total growth inhibition concentration)): 2.8 µM
- LC50 (lethal concentration 50) ([6]; PC-3, read-out: LD50 (lethal dose 50)): > 100 µM
- IC50 ([6]; PC-3, read-out: IC50): 2110 nM
- IC (TGI) ([6]; PC-3, read-out: TGI (total growth inhibition concentration)): 7.8 µM
- CC50 ([7]; U-251, read-out: LD50 (lethal dose 50)): 19.9 µM
- IC50 ([7]; U-251, U251, read-out: IC50): 1210 nM
- IC (TGI) ([7]; U-251, U251, read-out: TGI (total growth inhibition concentration)): 4.4 µM
- IC50 ([8]; OVCAR-4): 1660 nM
- LC50 (lethal concentration 50) ([8]; OVCAR-4, read-out: LD50 (lethal dose 50)): > 100 µM
- IC (TGI) ([8]; OVCAR-4, read-out: TGI (total growth inhibition concentration)): 8.6 µM
- IC50 ([9]; HOP-92): 1830 nM
- IC (TGI) ([9]; HOP-92, HOP-92, read-out: TGI (total growth inhibition concentration)): 7.5 µM
- LD50 (lethal dose 50) ([9]; HOP-92, read-out: LD50 (lethal dose 50)): > 100 µM
- IC50 ([10]; SK-MEL-5): 1270 nM
- LC50 (lethal concentration 50) ([10]; SK-MEL-5, read-out: LD50 (lethal dose 50)): 5.3 µM
- IC (TGI) ([10]; SK-MEL-5, read-out: TGI (total growth inhibition concentration)): 2.6 µM
- IC50 (renal cancer cell lines): 1890 nM
- IC50 [11]: 1960 nM
- IC50 [12]: 2110 nM
- IC50 (melanoma cell lines): 1620 nM
- IC50 (colon cancer cell lines): 1480 nM
- IC50 [13]: 2030 nM
- IC50 (Leukaemia cell lines): 1550 nM
- IC50 (CNS cancer cell lines): 1700 nM
- IC50 (breast cancer cell lines): 1110 nM
- inhibition at 10 µM [14]: 168%
- inhibition at 10 µM [15]: 147%
- inhibition at 10 µM [16]: 140%
